Measurements as given in US11472811B2, “Pyrazolotriazolopyrimidine derivatives as A2A receptor antagonist” (BEIGENE, LTD., priority 2018, dated 2022).
Where two headings read alike, the source gives them in different places.

Tests used:
[1] = target: human adenosine A2A receptor (A2AR) (Homo sapiens (Human), UniProt P29274); experiment: Adenosine receptor binding assay, A2A (radioligand competitive binding); details: membrane homogenates from HEK293 cells transfected with A2AR, 6 nM [3H]CGS21680
Protocol: (§1) Binding affinity of test compounds to four human adenosine receptors, A1, A2A, A2B and A3 was determined in radioligand competitive binding assay (conducted by Cerep, France) using following protocols. For A1 receptor (A1R), membrane homogenates from CHO cells transfected with A1R were incubated for 60 min at 22° C. with 1 nM [3H]DPCPX in the absence or presence of the test compound in a buffer containing 50 mM Tris-HCl (pH 7.4), 5 mM MgCl2, 1 mM EDTA/Tris and 2 UI/mL ADA. For A2AR, membrane homogenates from HEK293 cells transfected with A2AR were incubated for 120 min at 22° C. with 6 nM [3H]CGS21680 in the absence or presence of the test compound in a buffer containing 50 mM Tris-HCl (pH 7.4), 10 mM MgCl2, and 2 UI/mL ADA. For A2B receptor (A2BR), membrane homogenates from HEK293 cells transfected with A2BR were incubated for 60 min at 22° C. with 5 nM [3H]CPX in the absence or presence of the test compound in a buffer containing 10 mM Hepes/Tris (pH 7), 1 mM MgCl2, and 1 mM EDTA. For A3 receptor (A3R), membrane homogenates from HEK293 cells transfected with A3R were incubated for 120 min at 22° C. with 0.15 nM [125I] AB-MECA in the absence or presence of the test compound in a buffer containing 50 mM Tris-HCl (pH 7.4), 5 mM MgCl2, 1 mM EDTA and 2 UI/mL ADA. Nonspecific binding was determined in the presence of unlabeled 1 μM DPCPX, 10 μM NECA, 100 μM NECA, and 1 μM IB-MECA in A1R, A2AR, A2BR, A3R binding assays, respectively. Following incubation, the samples are rapidly filtered and washed with ice-cold 50 mM Tris-HCl. Then filters are dried and counted for radioactivity in a scintillation counter (Topcount, Packard) using a scintillation cocktail (Microscint 0, Packard). Duplicate experiments were performed for each assay. The results are expressed as a percent inhibition of control radioligand specific binding.

[2] = target: human A2A receptor (A2AR) (Homo sapiens (Human), UniProt P29274); experiment: Luciferase reporter assay (HEK293-A2AR-luc2p/CRE/Hygro cells); assay type: cell-based; details: 3 nM CGS21680, 5 h incubation
In short: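 Antagonism was scored as inhibition of CRE-luciferase signal driven by 3 nM CGS21680 (=100%) during a 5 h treatment with compound at 0.1–10000 nM. The line was HEK293 stably carrying human A2AR and luc2P/CRE, preincubated 18 h in 1% FBS containing 1 U/mL ADA. IC50 came from the dose-response curve.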

[3] = target: human adenosine A1 receptor (A1R) (Homo sapiens (Human), UniProt P30542); experiment: Adenosine receptor binding assay, A1 (radioligand competitive binding); details: membrane homogenates from CHO cells transfected with A1R, 1 nM [3H]DPCPX
Protocol: as §1

[4] = Mouse BBB assay; assay type: in vivo; details: oral 10 mg/kg; for Brain (ng · g^−1): at 1 h
Protocol: Mice were acclimated for 1 week prior to use at 18-30 g body weight. Fasted mice were dosed orally at 10 mg/kg dose. At 1, 2 and 4 hours postdose, plasma samples from cardiac blood collected in tubes containing K2EDTA as the anticoagulant, and excised cerebral hemispheres were immediately frozen and stored at −80° C. until bioanalysis. Total concentrations of the compound were determined by LC-MS/MS. Brain homogenate concentrations were converted to brain concentrations for the calculations of brain-to-plasma ratios.

[5] = BLOQ: below limit of quantitation, Brain is 5 ng/g
[6] = limit of quantitation plasma 1 ng/ml, read-out: Plasma

Sequence of human adenosine A1 receptor (A1R) (P30542 whole entry): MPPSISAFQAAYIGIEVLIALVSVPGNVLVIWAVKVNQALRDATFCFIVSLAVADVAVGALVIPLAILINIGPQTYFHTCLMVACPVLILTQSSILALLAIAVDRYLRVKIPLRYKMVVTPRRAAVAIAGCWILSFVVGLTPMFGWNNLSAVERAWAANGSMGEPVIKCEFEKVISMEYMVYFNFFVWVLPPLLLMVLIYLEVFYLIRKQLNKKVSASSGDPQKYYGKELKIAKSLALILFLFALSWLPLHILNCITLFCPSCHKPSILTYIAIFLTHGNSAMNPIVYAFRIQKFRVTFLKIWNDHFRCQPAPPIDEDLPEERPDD
Sequence of human A2A receptor (A2AR) (P29274 whole entry): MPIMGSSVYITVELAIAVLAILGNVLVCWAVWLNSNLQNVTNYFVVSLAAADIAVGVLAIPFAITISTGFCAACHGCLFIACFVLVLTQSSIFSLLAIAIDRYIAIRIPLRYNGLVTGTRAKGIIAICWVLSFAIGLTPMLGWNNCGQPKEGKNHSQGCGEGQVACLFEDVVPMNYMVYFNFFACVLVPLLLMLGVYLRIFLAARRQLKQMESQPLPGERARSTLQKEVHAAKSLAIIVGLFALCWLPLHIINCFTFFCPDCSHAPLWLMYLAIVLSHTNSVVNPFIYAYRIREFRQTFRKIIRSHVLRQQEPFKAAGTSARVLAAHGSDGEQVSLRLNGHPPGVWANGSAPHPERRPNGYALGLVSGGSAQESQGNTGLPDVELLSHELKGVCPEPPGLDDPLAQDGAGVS
Sequence of human adenosine A2A receptor (A2AR) (P29274 whole entry): as above

| Compound | Ki [1] [nM] | IC50 [2] [nM] | Ki [3] [nM] | Brain (ng · g^−1) [4, 5] | concentration at 1 h [4, 6] [ng/mL] | concentration at 1 h ([4]; BLOQ: below limit of quantitation, Brain is 5 ng/g, read-out: Brain) [ng/g] |
| --- | --- | --- | --- | --- | --- | --- |
| C[C@](C(=O)NCC1(O)COC1)(c1ccccc1)n1ncc2c1nc(N)n1nc(-c3ccco3)nc21 [Example 31B, (R)-2-(5-amino-2-(furan-2-yl)-7H-pyrazolo[4,3-e][1,2,4]triazolo[1,5-c]pyrimidin-7-yl)-N-((3-hydroxyoxetan-3-yl)methyl)-2-phenylpropanamide] | 1.2 | 2.3 | 180 | BLOQ | 177 | – |
| CC1(O)CCC(NC(=O)[C@@](C)(c2ccccc2)n2ncc3c2nc(N)n2nc(-c4ccco4)nc32)CC1 (stereo partly drawn) [Example 69B, (R)-2-(5-amino-2-(furan-2-yl)-7H-pyrazolo[4,3-e][1,2,4]triazolo[1,5-c]pyrimidin-7-yl)-(cis)-N-(4-hydroxy-4-methylcyclohexyl)-2-phenylpropanamide] | 1.6 | 3.9 | 540 | BLOQ | 29.4 | – |
| Nc1nc2c(cnn2[C@H](C(=O)NCC2(O)COC2)c2ccccc2)c2nc(-c3ccco3)nn12 [Example 82B] | 1.7 | 3.8 | 7.2 | – | – | – |

The next lines start with the values.

| Ki [1] [nM] | IC50 [2] [nM] | Ki [3] [nM] | Brain (ng · g^−1) [4, 5] | concentration at 1 h [4, 6] [ng/mL] | concentration at 1 h ([4]; BLOQ: below limit of quantitation, Brain is 5 ng/g, read-out: Brain) [ng/g] | Compound |
| --- | --- | --- | --- | --- | --- | --- |
| 1.6 | 2.2 | 150 | BLOQ | 39.1 | – | C[C@](C(=O)N[C@H]1CC[C@@H](O)CC1)(c1ccccc1)n1ncc2c1nc(N)n1nc(-c3ccco3)nc21 [Example 76B, (R)-2-(5-amino-2-(furan-2-yl)-7H-pyrazolo[4,3-e][1,2,4]triazolo[1,5-c]pyrimidin-7-yl)-(cis)-N-(4-hydroxycyclohexyl)-2-phenylpropanamide] |
| 2.2 | 1.6 | 12 | – | 56.3 | 8.69 | C[C@](C(=O)N[C@@H]1CCC[C@@H]1O)(c1ccccc1)n1ncc2c1nc(N)n1nc(-c3ccco3)nc21 [Example 48B, (R)-2-(5-amino-2-(furan-2-yl)-7H-pyrazolo[4,3-e][1,2,4]triazolo[1,5-c]pyrimidin-7-yl)-N-((1R,2S)-2-hydroxycyclopentyl)-2-phenylpropanamide] |
